In patent US11472766B2, “Lipid nanoparticle composition” (Suzhou Abogen Biosciences Co., Ltd., priority 2020, dated 2022):

Key:
[1] = Lipid nanoparticle size by dynamic light scattering (Malvern Zetasizer Nano ZS); assay type: physicochemical; settings: LNP: cationic lipid/DSPC/cholesterol/PEG-lipid 50:10:38.5:1.5, hEPO mRNA
How it was run: (§1)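 Lipids 50:10:38.5:1.5 (cationic:DSPC:chol:PEG) in EtOH + mRNA in citrate pH 4, 1:3 vol, microfluidic, 9–30 mL/min; total lipid:mRNA ~10:1–30:1 w/w. Dialysis to DPBS, 0.2 μm filter. DLS 173° backscatter; Ribogreen encapsulation.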

[2] = test system: human erythropoietin (hEPO) mRNA; experiment: Animal study: hEPO expression after tail vein injection of LNPs encapsulating hEPO mRNA (serum ELISA); assay type: in vivo; settings: hEPO level, female ICR mice, 0.5 mg/kg, 6 hours post administration; for Expression at 6 h (μg/ml): class symbols, Table 3; for Expression at 6 h: Table 2
How it was run: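 Female ICR mice (6-8 weeks) received LNPs carrying hEPO mRNA by tail vein injection at 0.5 mg/kg, with MC3 LNPs dosed the same way as positive control. Blood was drawn at set times (e.g., 6 h) and serum separated. hEPO was quantified by ELISA and reported as μg/ml.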

[3] = Encapsulation efficiency of lipid nanoparticles (Quant-it Ribogreen RNA quantification assay); assay type: physicochemical; settings: LNP encapsulating hEPO mRNA
How it was run: as §1

[4] = Apparent pKa of LNP formulations (TNS fluorescence assay); settings: LNP cationic lipid/DSPC/cholesterol/DMG-PEG 50/10/38.5/1.5 mol %

| polydispersity ([1]; Table 3) | size nm ([1]; Table 3) [nm] | Encapsulation Efficiency ([3]; Table 3) [%] | Apparant Pka ([4]; Table 3) | polydispersity ([1]; Table 2) | size nm ([1]; Table 2) [nm] | Encapsulation Efficiency ([3]; Table 2) [%] | Apparant Pka ([4]; Table 2) | SMILES | Expression at 6 h (μg/ml) [2] | Expression at 6 h [2] [µg/mL] |
| --- | --- | --- | --- | --- | --- | --- | --- | --- | --- | --- |
| 0.035 | 104.1 | 85.6 | 6.652 | – | – | – | – | CCCCCCCCC(CCCCCC)CNC(=O)CCCCCN(CCCCCC(=O)NCC(CCCCCC)CCCCCCCC)CCN(CCC)C1CCC(O)CC1 (stereo not shown) [Compound 135] | C (≥0.1 and <1) | – |
| 0.027 | 81.13 | 85.3 | 6.678 | – | – | – | – | CCCCCCC(CCCCCC)CC(=O)NCCCCCN(CCCCCOC(=O)CC(CCCCCC)CCCCCC)CCN(CCO)C1CCCCCC1 [Compound 142] | A (≥2) | – |
| 0.052 | 56.96 | 80.1 | 6.279 | – | – | – | – | CCCCCCCCC(CCCCCCCC)COC(=O)CCCCCN(CCCCCC(=O)OCC(CCCCCCCC)CCCCCCCC)CCN(CCC)C1CCCC1O (stereo not shown) [Compound 68] | C (≥0.1 and <1) | – |
| 0.061 | 73.86 | 94.0 | 6.948 | – | – | – | – | CCCCCCCCCCCOC(=O)CCCCCN(CCCCCC(=O)NCC(CCCCCCCC)CCCCCCCC)CCN(CCO)C1CC1 [Compound 151] | C (≥0.1 and <1) | – |
| 0.201 | 79.28 | 94.5 | 6.795 | – | – | – | – | CCCCCCCCC(CCCCCC)CC(=O)NCCCCCN(CCCCCNC(=O)CC(CCCCCC)CCCCCCCC)CCN(CCO)C1CCCCCC1 (stereo not shown) [Compound 116] | A (≥2) | – |
| 0.004 | 70.49 | 94.10 | 6.406 | – | – | – | – | CCCCCCCCC(CCCCCCCC)COC(=O)CCOCCN(CCOCCC(=O)OCC(CCCCCCCC)CCCCCCCC)CCN(CCO)C1CCC1 [Compound 102] | B (≥1 and <2) | – |
| 0.046 | 83.84 | 85.6 | 7.146 | – | – | – | – | CCCCCCCCCCCOC(=O)CCCCCN(CCCCCC(=O)NCC(CCCCCCCC)CCCCCCCC)CCN(CCO)C1CCCCC1 [Compound 148] | A (≥2) | – |
| 0.038 | 91.13 | 93.0 | 6.613 | – | – | – | – | CCCCCCCC(CCCCCCC)COC(=O)CCCCCN(CCCCCC(=O)OCC(CCCCCCC)CCCCCCC)CCN(CCC)C1CCC(O)CC1 (stereo not shown) [Compound 71] | A (≥2) | – |
| 0.049 | 92.3 | 89.0 | 6.668 | – | – | – | – | CCCCCCCCC(CCCCCC)CNC(=O)CCCCCN(CCCCCC(=O)NCC(CCCCCC)CCCCCCCC)CCN(CCO)C1CCCC1 (stereo not shown) [Compound 111] | B (≥1 and <2) | – |
| 0.035 | 64.39 | 98.4 | 6.797 | – | – | – | – | CCCCCCCCC(CCCCCC)COC(=O)NCCCCN(CCCCNC(=O)OCC(CCCCCC)CCCCCCCC)CCN(CCO)C1CCC1 (stereo not shown) [Compound 155] | B (≥1 and <2) | – |
| 0.025 | 87.68 | 94.7 | 6.406 | – | – | – | – | CCCCCCCCCCCOC(=O)CCCCCN(CCCCCC(=O)OCC(CCCCCCCC)CCCCCCCC)CCN(CCO)C1CCCC1 [Compound 82] | A (≥2) | – |
| 0.063 | 93.52 | 96.1 | 6.645 | – | – | – | – | CCCCCCCCC(CCCCCC)COC(=O)CCCCCN(CCCCCC(=O)OCC(CCCCCC)CCCCCCCC)CCN(C(C)C)C1CCC(O)CC1 (stereo not shown) [Compound 57] | A (≥2) | – |
| 0.057 | 62.72 | 98.9 | 6.523 | – | – | – | – | CCCCCCCCC(CCCCCC)CNC(=O)CCCCCN(CCCCCC(=O)NCC(CCCCCC)CCCCCCCC)CCN(CCO)C1CCC1 (stereo not shown) [Compound 118] | A (≥2) | – |

The remaining lines, values behind:

| SMILES | polydispersity ([1]; Table 3) | size nm ([1]; Table 3) [nm] | Encapsulation Efficiency ([3]; Table 3) [%] | Apparant Pka ([4]; Table 3) | polydispersity ([1]; Table 2) | size nm ([1]; Table 2) [nm] | Encapsulation Efficiency ([3]; Table 2) [%] | Apparant Pka ([4]; Table 2) | Expression at 6 h (μg/ml) [2] | Expression at 6 h [2] [µg/mL] |
| --- | --- | --- | --- | --- | --- | --- | --- | --- | --- | --- |
| CCCCCCCCC(CCCCCC)COC(=O)CCCCCN(CCCCCC(=O)OCC(CCCCCC)CCCCCCCC)CCN(CCCCCCCCO)C1CCC1 (stereo not shown) [Compound 31] | 0.076 | 71.64 | 92.4 | 5.822 | – | – | – | – | C (≥0.1 and <1) | – |
| CCCCCCCCC(CCCCCC)COC(=O)CCCCCN(CCCCCC(=O)OCC(CCCCCC)CCCCCCCC)CCN(CCCO)C1CCCCC1 (stereo not shown) [Compound 9] | – | – | – | – | 0.106 | 77.6 | 93.3 | 6.01 | – | 0.86 |
| CCCCCCCCC(CCCCCC)COC(=O)CCCCCCN(CCCCCCC(=O)OCC(CCCCCC)CCCCCCCC)CCN(CCO)C1CCC1 (stereo not shown) [Compound 37] | 0.034 | 84.26 | 97.0 | 6.205 | – | – | – | – | A (≥2) | – |
| CCCCCCCCC(CCCCCC)COC(=O)CCCCCN(CCCCCC(=O)OCC(CCCCCC)CCCCCCCC)CCN(C(=O)CCO)C1CCC1 (stereo not shown) [Compound 8] | – | – | – | – | 0.065 | 54.7 | 96.9 | 5.84 | – | 0.00 |
| CCCCCCCCC(CCCCCC)C(=O)OCCCCCCCCCN(CCCCCCCCCOC(=O)C(CCCCCC)CCCCCCCC)CCN(CCO)C1CCC1 (stereo not shown) [Compound 44] | 0.063 | 83.85 | 97.5 | 6.049 | – | – | – | – | B (≥1 and <2) | – |
| CCCCCCCCCCC(CCCCCC)COC(=O)CCCCN(CCCCC(=O)OCC(CCCCCC)CCCCCCCCCC)CCN(CCO)C1CCC1 (stereo not shown) [Compound 42] | 0.065 | 65.63 | 96.4 | 6.196 | – | – | – | – | C (≥0.1 and <1) | – |
| CCCCCCCCC(CCCCCC)COC(=O)CCCCCN(CCCCCC(=O)OCC(CCCCCC)CCCCCCCC)CCN(CCO)C1CCC1 (stereo not shown) [Compound 1] | – | – | – | – | 0.168 | 76.5 | 95.7 | 6.40 | – | 16.21 |
| CCCCCCCCC(CCCCCC)COC(=O)CCCCCN(CCCCCC(=O)OCC(CCCCCC)CCCCCCCC)CCN(CCO)CCCC (stereo not shown) [Compound C] | – | – | – | – | 0.061 | 65.0 | 96.9 | 6.46 | – | 2.95 |
| CCCCCCCCC(CCCCCC)CC(=O)OCCCCCN(CCCCCOC(=O)CC(CCCCCC)CCCCCCCC)CCN(CCO)C1CCC1 (stereo not shown) [Compound 20] | 0.103 | 76.79 | 98.1 | 6.252 | – | – | – | – | A (≥2) | – |
| CCCCCCCCC(CCCCCC)COC(=O)CCCCCN(CCCCCC(=O)OCC(CCCCCC)CCCCCCCC)CCN(CCO)C1CC1 (stereo not shown) [Compound 4] | – | – | – | – | 0.068 | 57.5 | 98.1 | 5.87 | – | 0.48 |
